# In patent US20250171447A1, “ADENOSINE RECEPTOR ANTAGONISTS, PHARMACEUTICAL COMPOSITIONS AND THEIR USE THEREOF” (Merck Sharp & Dohme LLC, priority 2022, published 2025):
# Biological target: human A2A adenosine receptor (Homo sapiens (Human), UniProt P29274)
# Assay: A2A receptor affinity binding assay (radioligand filtration binding or SPA, [3H]SCH58261)
# Settings: membranes from HEK293 or CHO cells expressing human A2A; Method (A) filtration or Method (B) SPA
# human A2A adenosine receptor, sequence (P29274 whole entry): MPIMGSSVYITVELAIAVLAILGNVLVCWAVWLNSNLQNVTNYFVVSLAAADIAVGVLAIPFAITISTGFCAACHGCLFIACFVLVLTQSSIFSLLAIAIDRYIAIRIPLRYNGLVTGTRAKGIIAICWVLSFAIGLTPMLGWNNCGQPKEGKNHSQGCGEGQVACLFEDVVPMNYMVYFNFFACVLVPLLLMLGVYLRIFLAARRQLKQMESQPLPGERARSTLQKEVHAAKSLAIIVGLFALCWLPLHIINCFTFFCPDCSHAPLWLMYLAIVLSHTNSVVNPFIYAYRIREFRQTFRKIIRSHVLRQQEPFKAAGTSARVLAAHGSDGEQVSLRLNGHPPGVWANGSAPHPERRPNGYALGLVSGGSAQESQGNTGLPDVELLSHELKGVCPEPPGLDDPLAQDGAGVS
row,IC50 [nM],SMILES
1,1.6,"COc1cccc2c1nc(N)n1nc([C@H]3C[C@H](c4ccc(CN5CCNCC5)cc4)C3)nc21 [Ex-98, 7-methoxy-2-(trans-3-{4-[(piperazin-1-yl)methyl]phenyl}cyclobutyl)[1,2,4]triazolo[1,5-c]quinazolin-5-amine]"
2,0.6,"COc1cccc2c1nc(N)n1nc([C@H]3C[C@@H](c4ccc([C@@]5(C(F)(F)F)CCCCN5)cc4)C3)nc21 [Ex-99, 7-methoxy-2-(cis-3-{4-[(2R)-2-(trifluoromethyl)piperidin-2-yl]phenyl}cyclobutyl)[1,2,4]triazolo[1,5-c]quinazolin-5-amine]"
3,3.2,"COc1cccc2c1nc(N)n1nc([C@H]3C[C@H](c4ccc([C@@]5(C(F)(F)F)CCCCN5)cc4)C3)nc21 [Ex-100, 7-methoxy-2-(trans-3-{4-[(2R)-2-(trifluoromethyl)piperidin-2-yl]phenyl}cyclobutyl)[1,2,4]triazolo[1,5-c]quinazolin-5-amine]"
4,0.7,"COc1cccc2c1nc(N)n1nc([C@H]3C[C@@H](c4cnc(N5CCN[C@H](C)C5)c(C)c4)C3)nc21 [Ex-101, 7-methoxy-2-(cis-3-{5-methyl-6-[(3R)-3-methylpiperazin-1-yl]pyridin-3-yl}cyclobutyl)[1,2,4]triazolo[1,5-c]quinazolin-5-amine]"
5,1.5,"COc1cccc2c1nc(N)n1nc([C@H]3C[C@H](c4cnc(N5CCN[C@H](C)C5)c(C)c4)C3)nc21 [Ex-102, 7-methoxy-2-(trans-3-{5-methyl-6-[(3R)-3-methylpiperazin-1-yl]pyridin-3-yl}cyclobutyl)[1,2,4]triazolo[1,5-c]quinazolin-5-amine]"
6,4.2,"COc1cccc2c1nc(N)n1nc([C@H]3C[C@@H](c4cnc(CN)nc4)C3)nc21 [Ex-112, 2-{(cis)-3-[2-(aminomethyl)pyrimidin-5-yl]cyclobutyl}-7-methoxy[1,2,4]triazolo[1,5-c]quinazolin-5-amine]"
7,2.2,"COc1cccc2c1nc(N)n1nc([C@H]3C[C@H](c4cnc(CN)nc4)C3)nc21 [Ex-113, 2-{trans-3-[2-(aminomethyl)pyrimidin-5-yl]cyclobutyl}-7-methoxy[1,2,4]triazolo[1,5-c]quinazolin-5-amine]"
8,1.3,"COc1cccc2c1nc(N)n1nc([C@H]3C[C@H](c4ccc(N5CCN(C)CC5)nc4)C3)nc21 [Ex-114, 7-methoxy-2-{trans-3-[6-(4-methylpiperazin-1-yl)pyridin-3-yl]cyclobutyl}[1,2,4]triazolo[1,5-c]quinazolin-5-amine]"
9,1.7,"COc1cccc2c1nc(N)n1nc([C@H]3C[C@@H](c4ccc(N5CCN(C)CC5)nc4)C3)nc21 [Ex-115, 7-methoxy-2-{cis-3-[6-(4-methylpiperazin-1-yl)pyridin-3-yl]cyclobutyl}[1,2,4]triazolo[1,5-c]quinazolin-5-amine]"
10,1.8,"COc1cccc2c1nc(N)n1nc([C@H]3C[C@@H](c4ncc(C5(O)COC5)cc4C)C3)nc21 [Ex-119, 3-{6-[cis-3-(5-amino-7-methoxy[1,2,4]triazolo[1,5-c]quinazolin-2-yl)cyclobutyl]-5-methylpyridin-3-yl}oxetan-3-ol]"
11,3.7,"COc1cccc2c1nc(N)n1nc([C@H]3C[C@H](c4cnc(C(C)(C)N)c(C)n4)C3)nc21 [Ex-121, 2-((1r,3r)-3-(5-(2-aminopropan-2-yl)-6-methylpyrazin-2-yl)cyclobutyl)-7-methoxy-[1,2,4]triazolo[1,5-c]quinazolin-5-amine]"
12,15.9,"COc1cccc2c1nc(N)n1nc([C@H]3C[C@@H](c4cnc(C(C)(C)N)c(C)n4)C3)nc21 [Ex-122, 2-((1s,3s)-3-(5-(2-aminopropan-2-yl)-6-methylpyrazin-2-yl)cyclobutyl)-7-methoxy-[1,2,4]triazolo[1,5-c]quinazolin-5-amine]"
13,1.8,"COc1cccc2c1nc(N)n1nc([C@H]3C[C@@H](c4ncc(C5(N)COC5)cc4C)C3)nc21 [Ex-123, 2-{cis-3-[5-(3-aminooxetan-3-yl)-3-methylpyridin-2-yl]cyclobutyl}-7-methoxy[1,2,4]triazolo[1,5-c]quinazolin-5-amine]"
14,0.4,"COc1cccc2c1nc(N)n1nc([C@H]3C[C@H](c4ncc(C5(N)COC5)cc4C)C3)nc21 [Ex-124, 2-{trans-3-[5-(3-aminooxetan-3-yl)-3-methylpyridin-2-yl]cyclobutyl}-7-methoxy[1,2,4]triazolo[1,5-c]quinazolin-5-amine]"
15,2.6,"COc1cccc2c1nc(N)n1nc([C@H]3C[C@H](c4ncc(C(C)(C)N)nc4C4CC4)C3)nc21 [Ex-125, 2-((1r,3r)-3-(5-(2-aminopropan-2-yl)-3-cyclopropylpyrazin-2-yl)cyclobutyl)-7-methoxy-[1,2,4]triazolo[1,5-c]quinazolin-5-amine]"
16,4.6,"COc1cccc2c1nc(N)n1nc([C@H]3C[C@H](c4ncc(C(C)(C)N)nc4C(F)(F)F)C3)nc21 [Ex-126, 2-{trans-3-[5-(2-aminopropan-2-yl)-3-(trifluoromethyl)pyrazin-2-yl]cyclobutyl}-7-methoxy[1,2,4]triazolo[1,5-c]quinazolin-5-amine]"
17,2.9,"Cc1nc(C(C)(C)N)cnc1[C@H]1C[C@H](c2nc3c4cccc(Cl)c4nc(N)n3n2)C1 [Ex-127, 2-((1r,3r)-3-(5-(2-aminopropan-2-yl)-3-methylpyrazin-2-yl)cyclobutyl)-7-chloro-[1,2,4]triazolo[1,5-c]quinazolin-5-amine]"
18,5.7,"Cc1nc(C(C)(C)N)cnc1[C@H]1C[C@H](c2nc3c4cccc(F)c4nc(N)n3n2)C1 [Ex-133, 2-{trans-3-[5-(2-aminopropan-2-yl)-3-methylpyrazin-2-yl]cyclobutyl}-7-fluoro[1,2,4]triazolo[1,5-c]quinazolin-5-amine]"
19,148,"Cc1nc(C(C)(C)N)cnc1[C@H]1C[C@@H](c2nc3c4cccc(F)c4nc(N)n3n2)C1 [Ex-134, 2-{cis-3-[5-(2-aminopropan-2-yl)-3-methylpyrazin-2-yl]cyclobutyl}-7-fluoro[1,2,4]triazolo[1,5-c]quinazolin-5-amine]"
20,5.4,"COc1cccc2c1nc(N)n1nc([C@H]3C[C@@H](c4ccc(C5(N)CC(F)(F)C5)cn4)C3)nc21 [Ex-140, 2-((1s,3s)-3-(5-(1-amino-3,3-difluorocyclobutyl)pyridin-2-yl)cyclobutyl)-7-methoxy-[1,2,4]triazolo[1,5-c]quinazolin-5-amine]"
21,3.1,COc1cccc2c1nc(N)n1nc([C@H]3C[C@H](c4ccc(C5(N)CC(F)(F)C5)cn4)C3)nc21 [Ex-141]

row,SMILES,IC50 [nM]
1,"COc1cccc2c1nc(N)n1nc([C@H]3C[C@H](c4ncc(C5(O)COC5)cc4C)C3)nc21 [Ex-120, 3-{6-[trans-3-(5-amino-7-methoxy[1,2,4]triazolo[1,5-c]quinazolin-2-yl)cyclobutyl]-5-methylpyridin-3-yl}oxetan-3-ol]",0.5

# Biological target: human A2B adenosine receptor (Homo sapiens (Human), UniProt P29275)
# Assay: A2B binding affinity radioligand filtration binding assay
# Settings: membranes from HEK293 cells expressing human A2B; tritiated proprietary A2B antagonist
# human A2B adenosine receptor, sequence (P29275 whole entry): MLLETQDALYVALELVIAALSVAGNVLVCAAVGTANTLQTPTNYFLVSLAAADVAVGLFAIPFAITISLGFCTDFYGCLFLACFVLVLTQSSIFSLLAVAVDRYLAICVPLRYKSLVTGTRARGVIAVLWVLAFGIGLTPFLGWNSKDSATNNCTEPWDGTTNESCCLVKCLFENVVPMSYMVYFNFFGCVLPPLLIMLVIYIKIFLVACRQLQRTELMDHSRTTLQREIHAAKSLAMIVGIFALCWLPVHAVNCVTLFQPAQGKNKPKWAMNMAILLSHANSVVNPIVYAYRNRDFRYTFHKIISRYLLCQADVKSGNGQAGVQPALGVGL
row,IC50 [nM],SMILES
1,2.9,"COc1cccc2c1nc(N)n1nc(C3CC3c3nc4ccccc4n3C)nc21 (stereo not drawn) [Ex-3, 7-methoxy-2-[2-(1-methyl-1H-benzimidazol-2-yl)cyclopropyl][1,2,4] triazolo[1,5-c] quinazolin-5-amine]"
2,1.6,"COc1cccc2c1nc(N)n1nc([C@H]3C[C@H](c4ncc(C(C)(C)N)cc4C)C3)nc21 [Ex-83, 2-((1r,3r)-3-(5-(2-aminopropan-2-yl)-3-methylpyridin-2-yl)cyclobutyl)-7-methoxy-[1,2,4]triazolo[1,5-c]quinazolin-5-amine]"
